Laboratory results from US8901138B2, “Sulfoximine substituted quinazolines for pharmaceutical compositions” (Boehringer Ingelheim International GmbH, priority 2012, dated 2014).

target: MNK1a (Homo sapiens, UniProt Q9BUB5); assay: MNK1 in vitro kinase assay (assay 2), Z'-LYTE; type: biochemical; details: compound concentration of 1 μM
Description: B. MNK1 In Vitro Kinase Assay (Assay 2)
MNK1 Data can be obtained from the MNK1 Z′-LYTE® assay. The MNK1 Z′-LYTE® screening protocol and assay conditions are also described on www.invitrogen.com.
The assay is described as follows:
The Z′-LYTE® biochemical assay employs a fluorescence-based, coupled-enzyme format and is based on the differential sensitivity of phosphorylated and non-phosphorylated peptides to proteolytic cleavage. The peptide substrate is labeled with two fluorophores—one at each end—that make up a FRET pair.
In the primary reaction, the kinase transfers the gamma-phosphate of ATP to a single tyrosine, serine or threonine residue in a synthetic FRET-peptide. In the secondary reaction, a site-specific protease recognizes and cleaves non-phosphorylated FRET-peptides. Phosphorylation of FRET-peptides suppresses cleavage by the Development Reagent. Cleavage disrupts FRET between the donor (i.e., coumarin) and acceptor (i.e., fluorescein) fluorophores on the FRET-peptide, whereas uncleaved, phosphorylated FRET-peptides maintain FRET. A ratiometric method, which calculates the ratio (the Emission Ratio) of donor emission to acceptor emission after excitation of the donor fluorophore at 400 nm, is used to quantitate reaction progress, as shown in the equation below. Emission Ratio=Coumarin Emission(445 nm)/Fluorescein Emission(520 nm)
ASSAY SETUP: The inhibition of kinase activity of MNK1a was assessed using pre-activated GST-MNK1a. The 2×MKNK1 (MNK1) mixture is prepared in 50 mM HEPES pH 7.5, 0.01% BRIJ-35, 10 mM MgCl2, 4 mM MnCl2, 1 mM EGTA, 2 mM DTT. The final 10 μL Kinase Reaction consists of 13.5-54 ng MKNK1 (MNK1) and 2 μM Ser/Thr 07 in 50 mM HEPES pH 7.5, 0.01% BRIJ-35, 10 mM MgCl2, 2 mM MnCl2, 1 mM EGTA, 1 mM DTT. After the 1 hour Kinase Reaction incubation, 5 μL of a 1:32768 dilution of Development Reagent A is added.
The Test Compounds are screened in 1% DMSO (final) in the well.
All Peptide/Kinase Mixtures are diluted to a 2× working concentration in the MNK1 Kinase Buffer.
All ATP Solutions are diluted to a 4× working concentration in Kinase Buffer (50 mM HEPES pH 7.5, 0.01% BRIJ-35, 10 mM MgCl2, 1 mM EGTA).
Development Reagent Solution:
The Development Reagent is diluted in Development Buffer
Bar-coded Corning, low volume NBS, 384-well plate (Corning Cat. #3676)
1. 2.5 μL-4× Test Compound
2. 5 μL-2× Peptide/Kinase Mixture
5. 60-minute Kinase Reaction incubation at room temperature
6. 5 μL-Development Reagent Solution
8. 60-minute Development Reaction incubation at room temperature
9. Read on fluorescence plate reader and analyze the data
The following equations are used for each set of data points: […]
Correction for Background Fluorescence: FSample−FITCFl Ctl
Emission Ratio (using values corrected for background fluorescence):Coumarin
Emission (445 nm)/Fluorescein Emission (520 nm)
% Phosphorylation (% Phos): 1−((Emission Ratio×F100%)−C100%)/((C0%−C100%)+[Emission Ratio×(F100%−F0%)])*100 % Inhibition: 1−(% PhosSample/% Phos0% Inhibition Ctl)*100 FI=Fluorescence Intensity C100%=Average Coumarin emission signal of the 100% Phos. Control C0%=Average Coumarin emission signal of the 0% Phos. Control F100%=Average Fluorescein emission signal of the 100% Phos. Control F0%=Average Fluorescein emission signal of the 0% Phos. Control Graphing Software
SelectScreen® Kinase Profiling Service uses XLfit from IDBS. The dose response curve is curve fit to model number 205 (sigmoidal dose-response model).

MNK1a, sequence (Q9BUB5 1-424 isoform Q9BUB5-2): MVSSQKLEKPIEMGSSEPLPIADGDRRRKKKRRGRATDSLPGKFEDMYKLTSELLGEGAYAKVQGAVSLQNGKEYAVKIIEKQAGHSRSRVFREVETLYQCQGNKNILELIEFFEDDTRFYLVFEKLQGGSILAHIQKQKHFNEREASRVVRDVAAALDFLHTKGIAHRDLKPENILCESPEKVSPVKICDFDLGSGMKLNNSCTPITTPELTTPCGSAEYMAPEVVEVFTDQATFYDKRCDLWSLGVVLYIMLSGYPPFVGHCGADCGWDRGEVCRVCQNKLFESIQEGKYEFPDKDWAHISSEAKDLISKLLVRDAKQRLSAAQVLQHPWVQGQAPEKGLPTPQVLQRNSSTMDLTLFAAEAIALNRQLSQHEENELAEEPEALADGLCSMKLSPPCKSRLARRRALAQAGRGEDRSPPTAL

Structure (SMILES) | inhibition at 1 µM [%]
Cc1cc(N=S(C)(C)=O)cc2ncnc(Nc3ccc(F)cc3O[C@@H]3CCCN(C(=O)OC(C)(C)C)C3)c12 [Example 2.27] | 78
Cc1cc(N=S2(=O)CCNCC2)cc2ncnc(Nc3ccc(F)cc3O[C@@H]3CO[C@H]4[C@@H]3OC[C@H]4O)c12 [Example 3.3] | 95
Cc1cc(N=S2(=O)CCCC2)cc2ncnc(Nc3ccc(F)cc3O[C@H]3CCOC3)c12 [Example 2.85] | 100
Cc1cc(N=S2(=O)CCC(O)CC2)cc2ncnc(Nc3ccc(F)cc3O[C@H]3CCOC3)c12 (some centres unmarked) [Example 2.97] | 93
Cc1cc(N=S(C)(C)=O)cc2ncnc(Nc3ccc(C#N)nc3OC3CCOCC3)c12 [Example 1.38] | 99
Cc1cc(N=S(C)(C)=O)cc2ncnc(Nc3ccc(F)cc3O[C@@H]3CCNC3)c12 [Example 3.11] | 78
CO[C@H]1CC[C@H](Oc2cc(F)ccc2Nc2ncnc3cc(N=S4(=O)CCN(C(=O)OC(C)(C)C)CC4)cc(C)c23)CC1 [Example 2.14] | 52
CCS(=O)(CC)=Nc1cc(C)c2c(Nc3ccc(F)cc3O[C@@H]3CO[C@H]4[C@@H]3OC[C@H]4O)ncnc2c1 [Example 2.86] | 89
Cc1cc(N=S(C)(C)=O)cc2ncnc(Nc3ccc(F)cc3O[C@@H]3CO[C@H]4[C@@H]3OC[C@@H]4F)c12 [Example 2.116] | 100
COc1cc(N=S(C)(C)=O)cc2ncnc(Nc3ccc(F)cc3O[C@H]3CC[C@H](OC)CC3)c12 [Example 5.3] | 90
Cc1cc(N=S(C)(C)=O)cc2ncnc(Nc3ccsc3O[C@@H]3CCOC3)c12 [Example 2.58] | 30
CS(C)(=O)=Nc1cc(F)c2c(Nc3ccc(F)cc3O[C@H]3CC[C@@](C)(O)CC3)ncnc2c1 [Example 2.35] | 95
CO[C@H]1CC[C@H](Oc2cc(F)ccc2Nc2ncnc3cc(N=S4(=O)CCN(C(=O)N(C)C)CC4)cc(C)c23)CC1 [Example 7.5] | 77
Cc1cc(N=S(C)(C)=O)cc2ncnc(Nc3ccc(F)cc3O[C@H]3CO[C@H]4[C@@H]3OC[C@H]4O)c12 [Example 2.19] | 47
COCCS(C)(=O)=Nc1cc(C)c2c(Nc3ccc(F)cc3O[C@H]3CCOC3)ncnc2c1 (some centres unmarked) [Example 2.63] | 85
Cc1cc(N=S(C)(C)=O)cc2ncnc(Nc3ccc(F)cc3O[C@@H]3CCN(C(=O)OC(C)(C)C)C3)c12 [Example 2.52] | 60
CO[C@H]1CC[C@H](Oc2cc(F)ccc2Nc2ncnc3cc(N=S(C)(C)=O)cc(F)c23)CC1 [Example 2.46] | 88
Cc1cc(N=S(C)(C)=O)cc2ncnc(Nc3cccnc3O[C@@H]3CCCN(CC(C)(C)O)C3)c12 [Example 6.5] | 91
Cc1cc(N=S2(=O)CCCC2)cc2ncnc(Nc3ccc(F)cc3O[C@@H]3CCNC3)c12 [Example 3.4] | 92
Cc1cc(N=S(C)(C)=O)cc2ncnc(Nc3ccc(F)cc3OC3CCOC3=O)c12 (centres unmarked) [Example 4.13] | 75
COC(=O)N1CCS(=O)(=Nc2cc(C)c3c(Nc4ccc(F)cc4O[C@H]4CC[C@H](OC)CC4)ncnc3c2)CC1 [Example 7.3] | 72
CC(C)(C)OC(=O)N1CC[C@@H](Oc2cc(F)ccc2Nc2ncnc3cc(N=S(C)(C)=O)cc(F)c23)C1 [Example 2.32] | 50
Cc1cc(N=S(C)(C)=O)cc2ncnc(Nc3ccc(Br)cc3OC3CCOCC3)c12 [Example 1.10] | 80
Cc1cc(N=S2(=O)CCN(C(=O)OC(C)(C)C)CC2)cc2ncnc(Nc3ccc(F)cc3O[C@H]3CO[C@H]4[C@@H]3OC[C@H]4O)c12 [Example 2.21] | 81
CC(C)(O)CN1CCC[C@@H](Oc2ncccc2Nc2ncnc3cc(N=S(C)(C)=O)cc(F)c23)C1 [Example 6.19] | 70

same assay, conditions: pre-activated GST-MNK1a

Structure (SMILES) | IC50 [nM]
CCOc1cc(N=S(C)(C)=O)cc2ncnc(Nc3ccc(F)cc3O[C@@H]3CO[C@H]4[C@@H]3OC[C@H]4OC)c12 [Example 5.5] | 14
CO[C@@H]1CO[C@H]2[C@@H]1OC[C@H]2Oc1cc(F)ccc1Nc1ncnc2cc(N=S(C)(C)=O)cc(OCCF)c12 [Example 5.6] | 25
Cc1cc(N=S(C)(=O)C2CC2)cc2ncnc(Nc3ccc(F)cc3O[C@H]3CCOC3)c12 (some centres unmarked) [Example 2.103] | 82
Cc1cc(N=S(C)(C)=O)cc2ncnc(Nc3ccc(F)cc3O[C@@H]3CCC[C@H]3O)c12 [Example 7.16] | 25

target: T1, MNK2a (Homo sapiens, UniProt Q9HBH9); assay: MNK2a in vitro kinase assay (assay 1), ADP-Glo; type: biochemical; details: preactivated GST-MNK2a, 20 μM ATP, read-out: MNK2 IC50
T1 construct: made in house
T1 sequence (Q9HBH9 whole entry): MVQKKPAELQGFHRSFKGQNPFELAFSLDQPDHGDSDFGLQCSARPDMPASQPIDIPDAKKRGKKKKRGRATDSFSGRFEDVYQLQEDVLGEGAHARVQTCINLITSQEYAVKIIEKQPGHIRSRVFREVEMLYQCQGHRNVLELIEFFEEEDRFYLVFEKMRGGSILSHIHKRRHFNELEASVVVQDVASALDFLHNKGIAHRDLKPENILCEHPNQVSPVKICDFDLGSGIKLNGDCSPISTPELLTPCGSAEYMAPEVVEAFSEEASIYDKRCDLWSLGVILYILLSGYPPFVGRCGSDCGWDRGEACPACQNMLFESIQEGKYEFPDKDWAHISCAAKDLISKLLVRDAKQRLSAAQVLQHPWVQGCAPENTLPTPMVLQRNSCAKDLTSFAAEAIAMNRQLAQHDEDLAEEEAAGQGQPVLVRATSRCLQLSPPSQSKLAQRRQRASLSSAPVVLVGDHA
Protocol: A. MNK2a In Vitro Kinase Assay (Assay 1)
ASSAY SETUP: The inhibition of kinase activity of MNK2a was assessed using preactivated GST-MNK2a. The white, 384-well OptiPlate F plates were purchased from Perkin Elmer. The ADP-Glo Kinase Assay (including ultra pure ATP) was purchased from Promega (V9103). Activated MNK2a was obtained as described in WO2011/104340. The unlabeled eIF4E peptide (NH2-[…]—CONH2) (SEQ ID NO: 1), differing from Seq. ID No. 5 of WO 2011/104340 by the C-terminal —CONH2 group, was purchased from Thermo Fisher Scientific. All other materials were of highest grade commercially available. Compounds are tested in either serial dilutions or single dose concentrations. The compound stock solutions are 10 mM in 100% DMSO The serial compound dilutions are prepared in 100% DMSO followed by 1:27.3 intermediate dilution in assay buffer. The final DMSO concentration in assay will be <3%. In the 384-well plates 3 μl of test compound from the intermediate dilution is mixed with 4 μl of the activated MNK2 enzyme (final concentration of 10 nM) and 4 μl of the peptide (final concentration of 25 μM)/ultra pure ATP (final concentration of 20 μM), all dissolved in assay buffer. This step is followed by an incubation time of 90 min, then 10 μl of ADP Glo reagent are added, followed by 40 min of incubation. Then 20 μl of kinase detection reagent are admixed. The plates are sealed and after an incubation period of 30 min, the luminescence signal is measured in an Envision reader to determine the amount of produced ADP. All incubation steps are performed at room temperature. The assay buffer consists of 20 mM HEPES, 2 mM DTT, 0.01% BSA, 20 mM MgCl2 and 0.1% Pluronic F-127.
Each assay microtiter plate contains wells with vehicle controls instead of compound (1% DMSO in water) as reference for the high signal (100% CTL, high signal), and wells containing a potent MNK2 inhibitor (final 20 μM, 1% DMSO) as reference for low signal (0% CTL, low signal).
The luminescent signal generated is proportional to the ADP concentration produced and is correlated with activated MNK2 activity. The analysis of the data is performed by the calculation of the percentage of ATP consumption of activated MNK2 in the presence of the test compound compared to the consumption of ATP in the presence of activated MNK2 without compound. (RLU(sample)−RLU(low control))*100/(RLU(high value)−RLU(low control)) [RLU=relative luminescence units]
An inhibitor of the MNK2 enzyme will give values between 100% CTL (no inhibition) and 0% CTL (complete inhibition). Values of more than 100% CTL are normally related to compound/sample specific physico-chemical properties (e.g. solubility, light absorbance, fluorescence).
IC50 values based on dose response curves are calculated with the AssayExplorer software.

Structure (SMILES) | IC50 [nM]
Cc1cc(N=S(C)(C)=O)cc2ncnc(Nc3ccc(F)cc3O[C@@H]3CCCN(C(=O)OC(C)(C)C)C3)c12 [Example 2.27] | 46
Cc1cc(N=S2(=O)CCNCC2)cc2ncnc(Nc3ccc(F)cc3O[C@@H]3CO[C@H]4[C@@H]3OC[C@H]4O)c12 [Example 3.3] | 5
CCOc1cc(N=S(C)(C)=O)cc2ncnc(Nc3ccc(F)cc3O[C@@H]3CO[C@H]4[C@@H]3OC[C@H]4OC)c12 [Example 5.5] | 2
Cc1cc(N=S2(=O)CCC(O)CC2)cc2ncnc(Nc3ccc(F)cc3O[C@H]3CCOC3)c12 (some centres unmarked) [Example 2.97] | 2
Cc1cc(N=S(C)(C)=O)cc2ncnc(Nc3ccc(C#N)nc3OC3CCOCC3)c12 [Example 1.38] | 12
CO[C@@H]1CO[C@H]2[C@@H]1OC[C@H]2Oc1cc(F)ccc1Nc1ncnc2cc(N=S(C)(C)=O)cc(OCCF)c12 [Example 5.6] | 2
Cc1cc(N=S(C)(C)=O)cc2ncnc(Nc3ccc(F)cc3O[C@@H]3CCNC3)c12 [Example 3.11] | 32
CO[C@H]1CC[C@H](Oc2cc(F)ccc2Nc2ncnc3cc(N=S4(=O)CCN(C(=O)OC(C)(C)C)CC4)cc(C)c23)CC1 [Example 2.14] | 9
Cc1cc(N=S(C)(C)=O)cc2ncnc(Nc3ccc(F)cc3O[C@@H]3CO[C@H]4[C@@H]3OC[C@@H]4F)c12 [Example 2.116] | 2
COc1cc(N=S(C)(C)=O)cc2ncnc(Nc3ccc(F)cc3O[C@H]3CC[C@H](OC)CC3)c12 [Example 5.3] | 6
Cc1cc(N=S(C)(C)=O)cc2ncnc(Nc3ccsc3O[C@@H]3CCOC3)c12 [Example 2.58] | 109
Cc1cc(N=S(C)(=O)C2CC2)cc2ncnc(Nc3ccc(F)cc3O[C@H]3CCOC3)c12 (some centres unmarked) [Example 2.103] | 7
Cc1cc(N=S(C)(C)=O)cc2ncnc(Nc3ccc(F)cc3O[C@@H]3CCC[C@H]3O)c12 [Example 7.16] | 1
CS(C)(=O)=Nc1cc(F)c2c(Nc3ccc(F)cc3O[C@H]3CC[C@@](C)(O)CC3)ncnc2c1 [Example 2.35] | 4
CO[C@H]1CC[C@H](Oc2cc(F)ccc2Nc2ncnc3cc(N=S4(=O)CCN(C(=O)N(C)C)CC4)cc(C)c23)CC1 [Example 7.5] | 7
